The subject of assay [1] is alphabeta-depleted peripheral blood cells. Put plainly: T-cell receptor characterization by FACS of CD3+ cells from cultured alphabeta-depleted blood cells. Format: cell-based, human. The settings on record: 5 mM nicotinamide. As for the experimental part: (§1) Healthy donor blood units samples were depleted of TCR alphabeta-expressing T-cells using midiMACS™ columns and TCRα/β Kit (Miltenyi Biotec, Gaithersberg, Md.). Alphabeta-T-cell depleted populations were cultured for 12-13 days in VueLife® (Saint-Gobain, Gaithersburg, Md.) bags with medium supplemented with 0 (control) or 5 mM nicotinamide (NAM) and 50 ng/ml IL-2.
To characterize T cell receptor (TCR) expressed on CD3+ cells in culture, CD3 positive cells were purified with CliniMACS™ CD3 reagent (Miltenyi, 273-01, Gaithersburg, Md.) followed by FACS analysis of the percentages of CD3+/γδ+ and CD3+/α/β+ cells. FACS staining and analysis was performed according to standard procedures employing cell surface-specific antibodies.
Background: A flow cytometer gives signals particle by particle.

Assay [2] relates to gammadelta T cells. Briefly: CD62L expression in expanded gammadelta T-cells (FACS). Format: cell-based, human. As for the experimental part:
as §1
Purified gamma-delta T-cells from NAM-treated and control (−NAM) cultures were stained for CD62L (L-selectin) and analyzed by FACS, using anti-CD62L antibodies.

Assay [3] concerns gammadelta T cells. Briefly: Transplantation and in-vivo homing and retention of expanded gammadelta T-cells in irradiated NSG mice. To be noted: for in-vivo homing and tissue retention of gammadelta cells: cells expanded with 5 mM NAM, CFSE-labeled, i.v. into irradiated NSG mice, 4 days, all tissues analyzed. As for the experimental part:
as §1
CD3+/gammadelta+ cells were purified from culture, as described above, and then marked with CFSE (Invitrogen, Thermo-Fisher, Carlsbad, Calif.). NSG SCID mice were irradiated at 350cGy. The next day following irradiation, 5-6×10^6 CFSE-labeled CD3+/gammdelta-positive cells per mouse from NAM and control (−NAM) cultures were injected intravenously into the mice.
Mice were sacrificed 4 days after cell infusion, and organs excised. Fractions of CFSE stained cells were evaluated by FACS of organ cell suspensions.

Setting [4] is: cells cultured with 5 mM NAM, 4 days after infusion, irradiated NSG mice.

Entries after “also recorded” stand apart in the source; their conditions may differ.

For the compound `NC(=O)c1cccnc1` [NAM, nicotinamide], the “gammadelta T cells in CD3+ T-cell fraction” value in assay [1] (50 ng/ml IL-2, 12-13 days culture, CD3+ selected, FACS) is “greater than 90%”. For the same compound, the “effect on expansion of the gammadelta positive component of cultured T-cell populations” value in assay [1] (12-13 days culture) is on record as “does not seem to affect”. In the assay with gammadelta T cells [2] (5 mM NAM versus identical cells cultured without NAM), the “CD62L expression (in words)” value is reported as “striking enhancement”. Moreover, the “increase in CD62L expression” value in the assay with gammadelta T cells [2] (5 mM nicotinamide, 12-13 days culture, versus culture without NAM) is given as about 3 fold. In addition, in the assay with gammadelta T cells [3] (setting [4]), the “gammadelta T-cells retained in blood and lung tissue” value was “nearly three-fold increase”; the “gammadelta T-cells retained in lymphoid tissue (spleen, bone marrow)” value is “powerful enhancement”. Moreover, in the assay with gammadelta T cells [3], the “in-vivo homing and tissue retention of gammadelta cells” value was “enhanced incidence of homing and retention; also recorded: striking effect”. In addition, the “in-vivo homing and tissue retention of gammadelta cells” value in the assay with gammadelta T cells [3] (listed as nicotinamide) was “greater homing and tissue retention”.
